Source: PubChem BioAssay AID1963973 (Molecular Pharmacology Branch, DTP, NCI, 2024)

Test system: 883617-216-R-J1-PDC tumor spheroids, viability
Assay: Anticancer human tumor 883617-216-R-J1-PDC patient-derived bladder carcinoma cell line growth inhibition [PI3K]
Conditions: spheroids with HUVEC and MSC; for IC50: curve of first compound; for viability, T/C: stronger effect = lower value
How it was run: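 Agents were dosed from a top concentration near clinical Cmax (otherwise 10 microM) in half-log decrements, alone or combined with PI3K inhibitors. The spheroids contain tumor cells plus endothelial (HUVEC) and MSC stroma; viability is measured.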

[1] = second compound 0.0316 µM, first compound 0.0316 µM
[2] = second compound 0.0316 µM, first compound 0.1 µM
[3] = second compound 0.0316 µM, first compound 0.316 µM
[4] = second compound 0.0316 µM, first compound 1 µM
[5] = second compound 0.0316 µM, first compound 3.16 µM
[6] = second compound 0.0316 µM, first compound 10 µM
[7] = second compound 0.1 µM, first compound 0.0316 µM
[8] = second compound 0.1 µM, first compound 0.1 µM
[9] = second compound 0.1 µM, first compound 0.316 µM
[10] = second compound 0.1 µM, first compound 1 µM
[11] = second compound 0.1 µM, first compound 3.16 µM
[12] = second compound 0.1 µM, first compound 10 µM
[13] = second compound 0.316 µM, first compound 0.0316 µM
[14] = second compound 0.316 µM, first compound 0.1 µM
[15] = second compound 0.316 µM, first compound 0.316 µM
[16] = second compound 0.316 µM, first compound 1 µM
[17] = second compound 0.316 µM, first compound 3.16 µM
[18] = second compound 0.316 µM, first compound 10 µM
[19] = second compound 1 µM, first compound 0.0316 µM
[20] = second compound 1 µM, first compound 0.1 µM
[21] = second compound 1 µM, first compound 0.316 µM
[22] = second compound 1 µM, first compound 1 µM
[23] = second compound 1 µM, first compound 3.16 µM
[24] = second compound 1 µM, first compound 10 µM
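Also: spheroids exposed to agents for 7 days before the viability read.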

Cn1ncc(Cl)c1-c1cc(C(=O)NC(CN)Cc2cccc(F)c2)sc1Cl (centres undefined) + CC(Nc1ccc2c(c1)OCCn1cc(N3C(=O)OCC3C(F)F)nc1-2)C(N)=O
IC50 (second compound 0.00316 µM): 285 nM
IC50 (second compound 0.01 µM): 455 nM
IC50 (second compound 0.0316 µM): 223 nM
IC50 (second compound 0.1 µM): < 31.6 nM
IC50 (second compound 0.316 µM): < 31.6 nM
IC50 (second compound 1 µM): < 31.6 nM
viability, T/C (second compound 0.00316 µM, first compound 0.0316 µM): 82.8%
viability, T/C (second compound 0.00316 µM, first compound 0.1 µM): 69.4%
viability, T/C (second compound 0.00316 µM, first compound 0.316 µM): 51.2%
viability, T/C (second compound 0.00316 µM, first compound 1 µM): 28.9%
viability, T/C (second compound 0.00316 µM, first compound 3.16 µM): 10.6%
viability, T/C (second compound 0.00316 µM, first compound 10 µM): 87.3%
viability, T/C (second compound 0.01 µM, first compound 0.0316 µM): 88.9%
viability, T/C (second compound 0.01 µM, first compound 0.1 µM): 90.2%
viability, T/C (second compound 0.01 µM, first compound 0.316 µM): 52.5%
viability, T/C (second compound 0.01 µM, first compound 1 µM): 27.2%
viability, T/C (second compound 0.01 µM, first compound 3.16 µM): 10.3%
viability, T/C (second compound 0.01 µM, first compound 10 µM): 96.1%
viability, T/C [1]: 67%
viability, T/C [2]: 63.6%
viability, T/C [3]: 43.2%
viability, T/C [4]: 21.7%
viability, T/C [5]: 8.53%
viability, T/C [6]: 64.1%
viability, T/C [7]: 43.8%
viability, T/C [8]: 44%
viability, T/C [9]: 30.7%
viability, T/C [10]: 15.2%
viability, T/C [11]: 7.17%
viability, T/C [12]: 51.4%
viability, T/C [13]: 23.5%
viability, T/C [14]: 25.2%
viability, T/C [15]: 18.6%
viability, T/C [16]: 11%
viability, T/C [17]: 5.52%
viability, T/C [18]: 21.4%
viability, T/C [19]: 13.5%
viability, T/C [20]: 12.6%
viability, T/C [21]: 11.8%
viability, T/C [22]: 8.52%
viability, T/C [23]: 5.53%
viability, T/C [24]: 13.3%

C[C@@H](NC(=O)c1ncnc(N)c1Cl)c1ncc(C(=O)Nc2cc(C(F)(F)F)c(Cl)cn2)s1 + Cc1nc(NC(=O)N2CCCC2C(N)=O)sc1-c1ccnc(C(C)(C)C(F)(F)F)c1
IC50 (second compound 0.0316 µM): > 10000 nM
IC50 (second compound 0.1 µM): > 10000 nM
IC50 (second compound 0.316 µM): 2000 nM
IC50 (second compound 1 µM): < 31.6 nM
IC50 (second compound 3.16 µM): < 31.6 nM
IC50 (second compound 10 µM): < 31.6 nM
viability, T/C [1]: 89.3%
viability, T/C [2]: 91.5%
viability, T/C [3]: 94.9%
viability, T/C [4]: 85.2%
viability, T/C [5]: 82.1%
viability, T/C [6]: 58%
viability, T/C [7]: 69%
viability, T/C [8]: 74.2%
viability, T/C [9]: 73.3%
viability, T/C [10]: 73%
viability, T/C [11]: 75.1%
viability, T/C [12]: 57.7%
viability, T/C [13]: 48.3%
viability, T/C [14]: 52.6%
viability, T/C [15]: 49.7%
viability, T/C [16]: 53.8%
viability, T/C [17]: 48.8%
viability, T/C [18]: 37.9%
viability, T/C [19]: 29.6%
viability, T/C [20]: 33.4%
viability, T/C [21]: 29.2%
viability, T/C [22]: 33%
viability, T/C [23]: 24.9%
viability, T/C [24]: 24.4%
viability, T/C (second compound 3.16 µM, first compound 0.0316 µM): 15.3%
viability, T/C (second compound 3.16 µM, first compound 0.1 µM): 14.3%
viability, T/C (second compound 3.16 µM, first compound 0.316 µM): 16.9%
viability, T/C (second compound 3.16 µM, first compound 1 µM): 15.7%
viability, T/C (second compound 3.16 µM, first compound 3.16 µM): 16.6%
viability, T/C (second compound 3.16 µM, first compound 10 µM): 12.1%
viability, T/C (second compound 10 µM, first compound 0.0316 µM): 9.78%
viability, T/C (second compound 10 µM, first compound 0.1 µM): 8.18%
viability, T/C (second compound 10 µM, first compound 0.316 µM): 11.9%
viability, T/C (second compound 10 µM, first compound 1 µM): 8.65%
viability, T/C (second compound 10 µM, first compound 3.16 µM): 7.27%
viability, T/C (second compound 10 µM, first compound 10 µM): 3.76%
